Experimental data as given in publication PMC5306220 (European Journal of Clinical Pharmacology, 2016).

Tests used:
[1] = Safety: treatment-emergent adverse events, laboratory tests, vital signs, ECG;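 also: dosing after fasting overnight (8 h minimum), clinic stay to day 2, outpatient visits on days 3 and 4, and a telephone check for adverse events about 14 days after study exit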
[2] = Population PK/PD model fitted to study data: PK parameter estimates; format: in vivo, human; conditions: PK/PD model typical value
Source text: To bridge the adult and pediatric PK, the PK model included weight as an initial covariate on clearance and volume of distribution parameters, as shown in the following equation: Pi=Ppop⋅WTi/WTreference^b⋅e^ηi

[3] = Plasma and urine pharmacokinetics of alogliptin after a single oral dose (LC-MS/MS, noncompartmental)
blood pressure = conditions: patients with T2DM; cited from earlier work
[4] = 12.5 mg single dose, Group 1 10 to <14 years, N = 5
[5] = 12.5 mg single dose, Group 2 14 to <18 years, N = 8
[6] = 25 mg single dose, Group 1 10 to <14 years, N = 4
[7] = 25 mg single dose, Group 2 14 to <18 years, N = 7
[8] = 25 mg single dose, Group 3 Adults, N = 22
[9] = entire study period, all 46 subjects
[10] = pediatric subjects, 12.5-mg dose vs adults 25 mg

For Cn1c(=O)cc(N2CCC[C@@H](N)C2)n(Cc2ccccc2C#N)c1=O [alogliptin], the “Mild TEAEs: Subjects, N (%)” value [1, 4] was 3 (60.0), the “Moderate TEAEs: Subjects, N (%)” value [1, 4] was 0 and the “Not related TEAEs: Subjects, N (%)” value [1, 4] was 1 (20.0). For the same molecule, the “Related TEAEs: Subjects, N (%)” value [1, 4] was 2 (40.0), the “Severe TEAEs: Subjects, N (%)” value [1, 4] was 0 and the “TEAEs: Subjects, N (%)” value [1, 4] was 3 (60.0). For the same molecule, the “Mild TEAEs: Subjects, N (%)” value [1, 5] was 5 (62.5), the “Moderate TEAEs: Subjects, N (%)” value [1, 5] was 0 and the “Not related TEAEs: Subjects, N (%)” value [1, 5] was 3 (37.5). The “Related TEAEs: Subjects, N (%)” value [1, 5] was 2 (25.0), the “Severe TEAEs: Subjects, N (%)” value [1, 5] was 0 and the “TEAEs: Subjects, N (%)” value [1, 5] was 5 (62.5). For the same molecule, the “Mild TEAEs: Subjects, N (%)” value [1, 6] was 1 (25.0), the “Moderate TEAEs: Subjects, N (%)” value [1, 6] was 0 and the “Not related TEAEs: Subjects, N (%)” value [1, 6] was 1 (25.0). The “Related TEAEs: Subjects, N (%)” value [1, 6] was 0, the “Severe TEAEs: Subjects, N (%)” value [1, 6] was 0 and the “TEAEs: Subjects, N (%)” value [1, 6] was 1 (25.0). For the same molecule, the “Mild TEAEs: Subjects, N (%)” value [1, 7] was 2 (28.6), the “Moderate TEAEs: Subjects, N (%)” value [1, 7] was 0 and the “Not related TEAEs: Subjects, N (%)” value [1, 7] was 2 (28.6). For the same molecule, the “Related TEAEs: Subjects, N (%)” value [1, 7] was 0, the “Severe TEAEs: Subjects, N (%)” value [1, 7] was 0 and the “TEAEs: Subjects, N (%)” value [1, 7] was 2 (28.6). For the same molecule, the “Mild TEAEs: Subjects, N (%)” value [1, 8] was 7 (31.8), the “Moderate TEAEs: Subjects, N (%)” value [1, 8] was 1 (4.5) and the “Not related TEAEs: Subjects, N (%)” value [1, 8] was 4 (18.2). For the same molecule, the “Related TEAEs: Subjects, N (%)” value [1, 8] was 5 (22.7), the “Severe TEAEs: Subjects, N (%)” value [1, 8] was 1 (4.5) and the “TEAEs: Subjects, N (%)” value [1, 8] was 9 (40.9). The “AEs leading to study drug discontinuation” value ([1]; entire study) was “No AEs led to study drug discontinuation”, the “abnormal ECG results reported as TEAE” value ([1]; entire study) was “No abnormal ECG result was reported as a TEAE” and the deaths ([1]; entire study) was “no deaths occurred”. The “number of TEAEs” value [1, 9] was 36, the “subjects who experienced TEAEs” value [1, 9] was 20 and the tolerability ([1]; single doses 12.5 and 25 mg, pediatric and adult subjects) was “well tolerated”. The “Absorption rate constant [KA] in adult subjects” value ([2]; adult subjects) was 1.66 h⁻¹, the “Oral clearance [CL/F] in adult subjects” value ([2]; adult subjects, reference body weight 70 kg) was 13.0 L/h and the “Absorption rate constant [KA] in pediatric subjects” value ([2]; pediatric subjects) was 0.590 h⁻¹. The “Oral clearance [CL/F] in pediatric subjects” value ([2]; pediatric subjects, reference body weight 70 kg) was 14.4 L/h, the Vd/F ([2]; human, plasma, oral, read-out: Central volume of distribution [V2/F]) was 125 L and the “mean CL/F higher in all pediatric subjects compared with adult subjects” value ([3]; groups 1 and 2 vs adults) was “up to 37%”. For the same molecule, the Tmax ([3]; human, plasma, po) was 2 to 4 h, the “correlation between dose-normalized AUC0-inf and creatinine clearance” value ([3]; pediatric and adult subjects) was “no correlations were observed” and the “mean AUC0-inf lower than in adults” value [3, 10] was 54%. For the same molecule, the “mean Cmax lower than in adults” value [3, 10] was 58%, the “mean AUC0-inf lower than in adults receiving the 25-mg dose” value ([3]; pediatric subjects, 25-mg dose) was 23% and the “mean Cmax lower than in adults receiving the 25-mg dose” value ([3]; pediatric subjects, 25-mg dose) was 26%. The “effect on blood pressure” value (blood pressure) was “lower blood pressure”.
